{
  "source": "ChEMBL document CHEMBL1201862",
  "about": "“PubChem BioAssay data set” (2004)",
  "assay_in_all_cases": "NCI anticancer screen, dose series, 48 h",
  "key": {"[1]": {"test_system": "A498"}, "[2]": {"test_system": "SF-295"}, "[3]": {"test_system": "MDA-N"}, "[4]": {"test_system": "NCI-H522"}, "[5]": {"test_system": "SK-MEL-28"}, "[6]": {"test_system": "LOX IMVI"}, "[7]": {"test_system": "786-0"}, "[8]": {"test_system": "SNB-75"}, "[9]": {"test_system": "SF-539"}, "[10]": {"test_system": "U-251"}, "[11]": {"test_system": "MOLT-4"}, "[12]": {"test_system": "SK-MEL-5"}, "[13]": {"test_system": "CCRF-CEM"}, "[14]": {"test_system": "UACC-62"}, "[15]": {"test_system": "CAKI-1"}, "[16]": {"test_system": "UACC-257"}, "[17]": {"test_system": "K562"}, "[18]": {"test_system": "HT-29"}, "[19]": {"test_system": "PC-3"}, "[20]": {"test_system": "MDA-MB-231"}, "[21]": {"test_system": "MDA-MB-435"}, "[22]": {"test_system": "NCI-H460"}, "[23]": {"test_system": "Hs-578T"}, "[24]": {"test_system": "Malme-3M"}, "[25]": {"test_system": "SW-620"}, "[26]": {"test_system": "ACHN"}, "[27]": {"test_system": "NCI/ADR-RES"}, "[28]": {"test_system": "RXF 393"}, "[29]": {"test_system": "HCT-116"}, "[30]": {"test_system": "SK-MEL-2"}, "[31]": {"test_system": "NCI-H226"}, "[32]": {"test_system": "M14"}, "[33]": {"test_system": "SK-OV-3"}, "[34]": {"test_system": "UO-31"}, "[35]": {"test_system": "SF-268"}, "[36]": {"test_system": "DU-145"}, "[37]": {"test_system": "T47D"}, "[38]": {"test_system": "HCT-15"}, "[39]": {"test_system": "RPMI-8226"}, "[40]": {"test_system": "OVCAR-3"}, "[41]": {"test_system": "OVCAR-8"}, "[42]": {"test_system": "IGROV-1"}, "[43]": {"test_system": "HOP-62"}, "[44]": {"test_system": "EKVX"}, "[45]": {"test_system": "OVCAR-4"}, "[46]": {"test_system": "OVCAR-5"}, "[47]": {"test_system": "SR"}, "[48]": {"test_system": "COLO 205"}, "[49]": {"test_system": "BT-549"}, "[50]": {"test_system": "SNB-19"}, "[51]": {"test_system": "KM12"}, "[52]": {"test_system": "HCC 2998"}, "[53]": {"test_system": "MCF7"}, "[54]": {"test_system": "NCI-H23"}, "[55]": {"test_system": "A549"}, "[56]": {"test_system": "HL-60"}, "[57]": {"test_system": "SN12C"}, "[58]": {"test_system": "TK-10"}, "[59]": {"test_system": "HOP-92"}},
  "note": "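A five-concentration, 48-hour dose response in 96-well plates underlies each endpoint, interpolated linearly between surrounding concentrations. GI50 marks 50% less growth.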 Activity calls are given as the source filed them. No stated cut-off is given here; in the data, active = GI50 up to about 1.1 µM and inactive = higher.",
  "data": [
    {"molecule": "CCN(CC)c1ccc2cc(-c3nnc(-c4ccccc4)o3)c(=O)oc2c1", "values": [
      {"measurement": "GI50", "setting": "[1]", "result": "45.9 µM (inactive)"},
      {"measurement": "GI50", "setting": "[2]", "result": "17.3 µM (inactive)"},
      {"measurement": "GI50", "setting": "[3]", "result": "48.5 µM (inactive)"},
      {"measurement": "GI50", "setting": "[4]", "result": "28.8 µM (inactive)"},
      {"measurement": "GI50", "setting": "[5]", "result": "> 85.3 µM (inactive)"},
      {"measurement": "GI50", "setting": "[6]", "result": "29.6 µM (inactive)"},
      {"measurement": "GI50", "setting": "[7]", "result": "17 µM (inactive)"},
      {"measurement": "GI50", "setting": "[8]", "result": "24.3 µM (inactive)"},
      {"measurement": "GI50", "setting": "[9]", "result": "13 µM (inactive)"},
      {"measurement": "GI50", "setting": "[10]", "result": "11.3 µM (inactive)"},
      {"measurement": "GI50", "setting": "[11]", "result": "413 nM (active)"},
      {"measurement": "GI50", "setting": "[12]", "result": "29.5 µM (inactive)"},
      {"measurement": "GI50", "setting": "[13]", "result": "3.89 µM (inactive)"},
      {"measurement": "GI50", "setting": "[14]", "result": "36.6 µM (inactive)"},
      {"measurement": "GI50", "setting": "[15]", "result": "> 45.7 µM (inactive)"},
      {"measurement": "GI50", "setting": "[16]", "result": "32.5 µM (inactive)"},
      {"measurement": "GI50", "setting": "[17]", "result": "1.4 µM (inactive)"},
      {"measurement": "GI50", "setting": "[18]", "result": "25.4 µM (inactive)"},
      {"measurement": "GI50", "setting": "[19]", "result": "30.8 µM (inactive)"},
      {"measurement": "GI50", "setting": "[20]", "result": "22.9 µM (inactive)"},
      {"measurement": "GI50", "setting": "[21]", "result": "> 48.6 µM (inactive)"},
      {"measurement": "GI50", "setting": "[22]", "result": "4.93 µM (inactive)"},
      {"measurement": "GI50", "setting": "[23]", "result": "> 84.9 µM (inactive)"},
      {"measurement": "GI50", "setting": "[24]", "result": "> 66.8 µM (inactive)"},
      {"measurement": "GI50", "setting": "[25]", "result": "30.5 µM (inactive)"},
      {"measurement": "GI50", "setting": "[26]", "result": "18.2 µM (inactive)"},
      {"measurement": "GI50", "setting": "[27]", "result": "7.67 µM (inactive)"},
      {"measurement": "GI50", "setting": "[28]", "result": "14.5 µM (inactive)"},
      {"measurement": "GI50", "setting": "[29]", "result": "19.9 µM (inactive)"},
      {"measurement": "GI50", "setting": "[30]", "result": "19.9 µM (inactive)"},
      {"measurement": "GI50", "setting": "[31]", "result": "29.4 µM (inactive)"},
      {"measurement": "GI50", "setting": "[32]", "result": "32.1 µM (inactive)"},
      {"measurement": "GI50", "setting": "[33]", "result": "14.7 µM (inactive)"},
      {"measurement": "GI50", "setting": "[34]", "result": "19.1 µM (inactive)"},
      {"measurement": "GI50", "setting": "[35]", "result": "28 µM (inactive)"},
      {"measurement": "GI50", "setting": "[36]", "result": "66.2 µM (inactive)"},
      {"measurement": "GI50", "setting": "[37]", "result": "23.4 µM (inactive)"},
      {"measurement": "GI50", "setting": "[38]", "result": 6.35, "unit": "µM"},
      {"measurement": "GI50", "setting": "[39]", "result": "12.1 µM (inactive)"},
      {"measurement": "GI50", "setting": "[40]", "result": "7.05 µM (inactive)"},
      {"measurement": "GI50", "setting": "[41]", "result": "28.1 µM (inactive)"},
      {"measurement": "GI50", "setting": "[42]", "result": "28.9 µM (inactive)"},
      {"measurement": "GI50", "setting": "[43]", "result": "17.6 µM (inactive)"},
      {"measurement": "GI50", "setting": "[44]", "result": "59.8 µM (inactive)"},
      {"measurement": "GI50", "setting": "[45]", "result": "39.4 µM (inactive)"},
      {"measurement": "GI50", "setting": "[46]", "result": "56.2 µM (inactive)"},
      {"measurement": "GI50", "setting": "[47]", "result": "6.64 µM (inactive)"},
      {"measurement": "GI50", "setting": "[48]", "result": "20.3 µM (inactive)"},
      {"measurement": "GI50", "setting": "[49]", "result": "> 57.1 µM (inactive)"},
      {"measurement": "GI50", "setting": "[50]", "result": "25.9 µM (inactive)"},
      {"measurement": "GI50", "setting": "[51]", "result": "46.7 µM (inactive)"},
      {"measurement": "GI50", "setting": "[52]", "result": "2.2 µM (inactive)"},
      {"measurement": "GI50", "setting": "[53]", "result": "22.5 µM (inactive)"},
      {"measurement": "GI50", "setting": "[54]", "result": "56.9 µM (inactive)"},
      {"measurement": "GI50", "setting": "[55]", "result": "16.4 µM (inactive)"},
      {"measurement": "GI50", "setting": "[56]", "result": "16.6 µM (inactive)"},
      {"measurement": "GI50", "setting": "[57]", "result": "31.4 µM (inactive)"},
      {"measurement": "GI50", "setting": "[58]", "result": "25.4 µM (inactive)"},
      {"measurement": "GI50", "setting": "[59]", "result": "> 100 µM (inactive)"}
    ]}
  ]
}
